Laboratory results as given in patent publication US20120122860A1, “SOLID FORMS OF SULFONAMIDES AND AMINO ACIDS” (Plexxikon, Inc., priority 2009, published 2012).

What was measured:
Src = Src (Homo sapiens, UniProt P12931); test: Kinase activity assay, Src
Kit = Kit (Homo sapiens, UniProt P10721); test: Kinase activity assay, Kit
Kdr = Kdr (Homo sapiens, UniProt P35968); test: Kinase activity assay, Kdr
TEC = biological target: T1, TEC (Homo sapiens, UniProt P42680); test: Kinase activity assay, TEC
T1 sequence (P42680 1-631): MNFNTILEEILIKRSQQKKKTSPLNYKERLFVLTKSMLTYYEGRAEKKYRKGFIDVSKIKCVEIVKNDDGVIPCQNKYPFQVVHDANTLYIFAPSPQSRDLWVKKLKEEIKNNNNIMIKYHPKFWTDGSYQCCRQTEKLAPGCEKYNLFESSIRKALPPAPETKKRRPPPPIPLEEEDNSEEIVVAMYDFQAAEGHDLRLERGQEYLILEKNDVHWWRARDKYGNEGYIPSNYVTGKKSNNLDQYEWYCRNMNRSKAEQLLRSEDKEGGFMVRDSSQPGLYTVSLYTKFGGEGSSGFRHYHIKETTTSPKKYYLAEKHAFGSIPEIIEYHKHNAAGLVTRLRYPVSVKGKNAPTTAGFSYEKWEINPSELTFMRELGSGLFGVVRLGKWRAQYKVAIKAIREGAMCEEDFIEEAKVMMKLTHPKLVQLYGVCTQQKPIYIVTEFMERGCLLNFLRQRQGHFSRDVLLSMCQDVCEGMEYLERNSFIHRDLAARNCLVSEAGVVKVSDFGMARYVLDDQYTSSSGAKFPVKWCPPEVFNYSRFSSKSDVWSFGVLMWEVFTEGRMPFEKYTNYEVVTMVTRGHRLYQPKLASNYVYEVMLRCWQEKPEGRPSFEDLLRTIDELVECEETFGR

C-Raf = C-Raf (Homo sapiens, UniProt P04049); test: Kinase activity assay, C-Raf
PI3Kα = PI3Kα (Homo sapiens, UniProt P42336); test: Kinase activity assay, PI3Kα
Chain of PI3Kα (P42336 whole entry): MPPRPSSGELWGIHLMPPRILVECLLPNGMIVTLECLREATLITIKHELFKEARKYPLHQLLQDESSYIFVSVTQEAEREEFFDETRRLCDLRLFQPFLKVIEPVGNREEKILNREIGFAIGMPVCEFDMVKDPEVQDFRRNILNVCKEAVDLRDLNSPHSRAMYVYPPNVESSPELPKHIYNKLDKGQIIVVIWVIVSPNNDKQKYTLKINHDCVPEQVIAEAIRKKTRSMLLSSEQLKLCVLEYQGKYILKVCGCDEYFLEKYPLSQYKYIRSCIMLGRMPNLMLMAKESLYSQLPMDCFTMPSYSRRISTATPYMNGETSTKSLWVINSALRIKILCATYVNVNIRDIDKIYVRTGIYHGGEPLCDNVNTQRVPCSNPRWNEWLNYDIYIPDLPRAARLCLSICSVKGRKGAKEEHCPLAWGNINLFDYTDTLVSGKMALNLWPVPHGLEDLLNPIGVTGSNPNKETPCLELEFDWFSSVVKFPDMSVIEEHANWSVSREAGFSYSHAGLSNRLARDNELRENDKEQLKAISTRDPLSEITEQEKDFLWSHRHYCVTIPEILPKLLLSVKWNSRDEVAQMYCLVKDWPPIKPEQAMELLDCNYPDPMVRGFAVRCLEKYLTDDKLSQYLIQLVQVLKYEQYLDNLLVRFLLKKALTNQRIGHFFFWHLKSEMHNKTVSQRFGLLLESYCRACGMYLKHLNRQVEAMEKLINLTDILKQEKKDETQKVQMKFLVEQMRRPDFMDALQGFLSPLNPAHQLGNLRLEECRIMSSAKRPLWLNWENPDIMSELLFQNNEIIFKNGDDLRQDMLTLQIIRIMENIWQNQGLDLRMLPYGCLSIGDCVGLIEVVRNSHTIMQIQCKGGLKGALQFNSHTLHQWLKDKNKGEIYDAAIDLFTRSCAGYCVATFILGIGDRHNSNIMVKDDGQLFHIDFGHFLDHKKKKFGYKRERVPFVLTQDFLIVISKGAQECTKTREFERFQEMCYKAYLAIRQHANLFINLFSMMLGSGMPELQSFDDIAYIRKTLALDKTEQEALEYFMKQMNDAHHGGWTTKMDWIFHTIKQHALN
Chain of PI3Kα (P27986 whole entry partner): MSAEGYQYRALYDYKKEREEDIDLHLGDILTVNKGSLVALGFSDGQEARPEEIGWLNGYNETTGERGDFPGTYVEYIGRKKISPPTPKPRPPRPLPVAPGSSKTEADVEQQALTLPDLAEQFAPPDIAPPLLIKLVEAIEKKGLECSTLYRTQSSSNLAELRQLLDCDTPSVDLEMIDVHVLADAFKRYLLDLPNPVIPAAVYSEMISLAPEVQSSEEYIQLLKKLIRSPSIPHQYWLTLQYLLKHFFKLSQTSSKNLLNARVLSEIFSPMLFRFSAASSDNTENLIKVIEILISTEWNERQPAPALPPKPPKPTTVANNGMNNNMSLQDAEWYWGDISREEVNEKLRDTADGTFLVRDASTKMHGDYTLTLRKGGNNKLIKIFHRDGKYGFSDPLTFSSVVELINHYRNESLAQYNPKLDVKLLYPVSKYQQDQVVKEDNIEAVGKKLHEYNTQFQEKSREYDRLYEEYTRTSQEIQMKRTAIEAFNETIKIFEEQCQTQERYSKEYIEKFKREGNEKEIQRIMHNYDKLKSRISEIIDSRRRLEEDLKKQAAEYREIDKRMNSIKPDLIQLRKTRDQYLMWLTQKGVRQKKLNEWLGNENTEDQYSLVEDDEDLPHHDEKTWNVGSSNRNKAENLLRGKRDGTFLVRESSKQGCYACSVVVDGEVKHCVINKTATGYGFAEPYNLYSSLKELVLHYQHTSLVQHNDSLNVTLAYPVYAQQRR

B-Raf = B-Raf (Homo sapiens, UniProt P15056); test: Kinase activity assay, B-Raf; assay type: biochemical; conditions: read-out: activity toward kinase B-Raf, IC50
Chain of B-Raf (P15056 whole entry): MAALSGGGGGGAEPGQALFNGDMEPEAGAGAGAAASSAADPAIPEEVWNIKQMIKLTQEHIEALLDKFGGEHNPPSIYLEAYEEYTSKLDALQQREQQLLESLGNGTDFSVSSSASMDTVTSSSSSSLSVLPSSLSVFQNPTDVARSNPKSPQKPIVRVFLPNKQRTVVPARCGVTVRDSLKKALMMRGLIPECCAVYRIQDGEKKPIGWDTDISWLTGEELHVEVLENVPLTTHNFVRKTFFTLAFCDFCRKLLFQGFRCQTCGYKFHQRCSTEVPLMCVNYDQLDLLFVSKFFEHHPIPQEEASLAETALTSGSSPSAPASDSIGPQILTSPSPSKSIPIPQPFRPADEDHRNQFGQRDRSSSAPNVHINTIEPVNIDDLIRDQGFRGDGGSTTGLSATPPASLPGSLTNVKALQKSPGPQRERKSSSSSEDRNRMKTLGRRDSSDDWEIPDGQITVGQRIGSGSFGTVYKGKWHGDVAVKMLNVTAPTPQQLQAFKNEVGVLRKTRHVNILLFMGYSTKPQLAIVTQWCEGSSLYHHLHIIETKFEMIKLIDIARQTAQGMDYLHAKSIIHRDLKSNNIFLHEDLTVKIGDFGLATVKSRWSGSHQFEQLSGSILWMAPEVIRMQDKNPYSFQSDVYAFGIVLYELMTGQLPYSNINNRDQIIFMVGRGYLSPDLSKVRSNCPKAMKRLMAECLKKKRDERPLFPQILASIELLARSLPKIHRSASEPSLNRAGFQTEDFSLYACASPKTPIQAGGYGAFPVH

B-Raf V600E = B-Raf V600E (Homo sapiens, UniProt P15056, V600E); test: Kinase activity assay, B-Raf V600E; assay type: biochemical; conditions: read-out: activity toward kinase B-Raf V600E, IC50
Chain of B-Raf V600E (P15056 whole entry V600E): as the sequence (P15056 whole entry) above, with V600E counted along it

Btk = Btk (Homo sapiens, UniProt Q06187); test: Kinase activity assay, Btk
Chain of Btk (Q06187 whole entry): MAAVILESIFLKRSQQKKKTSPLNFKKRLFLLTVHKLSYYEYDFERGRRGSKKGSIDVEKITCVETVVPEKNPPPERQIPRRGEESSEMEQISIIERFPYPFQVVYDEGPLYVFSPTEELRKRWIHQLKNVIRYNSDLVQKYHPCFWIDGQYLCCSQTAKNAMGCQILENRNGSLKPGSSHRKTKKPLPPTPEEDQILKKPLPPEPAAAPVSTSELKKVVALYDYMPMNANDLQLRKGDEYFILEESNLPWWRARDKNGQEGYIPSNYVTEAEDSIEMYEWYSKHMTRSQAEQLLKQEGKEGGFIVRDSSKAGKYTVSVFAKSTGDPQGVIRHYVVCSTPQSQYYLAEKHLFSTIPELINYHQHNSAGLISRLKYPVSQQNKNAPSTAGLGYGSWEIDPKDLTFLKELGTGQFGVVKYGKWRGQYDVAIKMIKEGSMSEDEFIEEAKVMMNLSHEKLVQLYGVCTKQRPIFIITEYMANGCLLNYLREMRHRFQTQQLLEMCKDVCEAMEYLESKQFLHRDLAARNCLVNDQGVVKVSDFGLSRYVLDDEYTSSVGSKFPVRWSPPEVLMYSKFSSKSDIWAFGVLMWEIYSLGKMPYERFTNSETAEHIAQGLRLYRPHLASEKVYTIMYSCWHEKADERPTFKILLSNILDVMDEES

MAP4K4 = MAP4K4 (Homo sapiens, UniProt O95819); test: Kinase activity assay, MAP4K4

Measured: IC50

Chain of Kit (P10721 26-976): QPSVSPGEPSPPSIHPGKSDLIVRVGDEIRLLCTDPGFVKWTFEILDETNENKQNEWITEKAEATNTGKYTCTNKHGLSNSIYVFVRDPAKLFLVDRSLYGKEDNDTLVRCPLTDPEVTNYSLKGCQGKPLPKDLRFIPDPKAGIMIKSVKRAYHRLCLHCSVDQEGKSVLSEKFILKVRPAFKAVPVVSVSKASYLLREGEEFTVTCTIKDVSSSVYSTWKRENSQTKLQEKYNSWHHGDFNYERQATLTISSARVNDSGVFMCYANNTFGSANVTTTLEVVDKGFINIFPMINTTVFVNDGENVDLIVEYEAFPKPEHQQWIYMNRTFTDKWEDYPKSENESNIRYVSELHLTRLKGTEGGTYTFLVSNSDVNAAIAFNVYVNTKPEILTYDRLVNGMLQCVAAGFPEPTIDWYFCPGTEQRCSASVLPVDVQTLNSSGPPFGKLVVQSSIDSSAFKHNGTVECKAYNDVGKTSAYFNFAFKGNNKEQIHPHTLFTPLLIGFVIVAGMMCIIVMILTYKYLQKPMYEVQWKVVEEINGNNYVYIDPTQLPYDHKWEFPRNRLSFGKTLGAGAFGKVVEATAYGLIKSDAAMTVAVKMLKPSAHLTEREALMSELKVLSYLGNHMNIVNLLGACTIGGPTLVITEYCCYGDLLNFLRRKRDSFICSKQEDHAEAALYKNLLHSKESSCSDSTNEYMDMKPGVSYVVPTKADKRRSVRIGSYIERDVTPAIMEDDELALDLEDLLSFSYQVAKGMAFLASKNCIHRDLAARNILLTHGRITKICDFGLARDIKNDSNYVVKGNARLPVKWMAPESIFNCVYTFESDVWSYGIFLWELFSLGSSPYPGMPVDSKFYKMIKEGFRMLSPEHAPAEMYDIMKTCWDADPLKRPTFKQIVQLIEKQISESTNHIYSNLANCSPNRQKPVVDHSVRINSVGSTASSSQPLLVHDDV
Chain of Src (P12931 whole entry): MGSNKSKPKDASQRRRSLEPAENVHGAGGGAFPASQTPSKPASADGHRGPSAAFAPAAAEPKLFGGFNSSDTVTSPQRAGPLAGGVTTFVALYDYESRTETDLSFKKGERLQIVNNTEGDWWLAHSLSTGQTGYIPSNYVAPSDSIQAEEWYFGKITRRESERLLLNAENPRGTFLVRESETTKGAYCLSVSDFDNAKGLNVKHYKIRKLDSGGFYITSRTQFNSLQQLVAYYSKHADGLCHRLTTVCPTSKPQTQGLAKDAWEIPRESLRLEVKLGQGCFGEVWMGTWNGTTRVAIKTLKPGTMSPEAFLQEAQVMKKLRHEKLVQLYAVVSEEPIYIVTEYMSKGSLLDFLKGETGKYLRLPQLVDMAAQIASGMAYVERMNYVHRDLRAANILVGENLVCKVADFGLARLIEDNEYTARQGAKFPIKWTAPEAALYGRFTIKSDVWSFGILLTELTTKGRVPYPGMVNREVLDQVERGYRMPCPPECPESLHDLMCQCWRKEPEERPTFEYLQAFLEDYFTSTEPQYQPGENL

COc1ncc(-c2cnc3[nH]cc(C(=O)c4c(F)ccc(NS(=O)(=O)c5ccccc5F)c4F)c3c2)cn1 [P-2041, N-{2,4-Difluoro-3-[5-(2-methoxy-pyrimidin-5-yl)-1H-pyrrolo[2,3-b]pyridine-3-carbonyl]-phenyl}-2-fluoro-benzenesulfonamide]
not listed: MAP4K4
≤ 10 µM: all other assays above

COc1ncc(-c2cnc3[nH]cc(C(=O)c4c(F)ccc(NS(=O)(=O)c5cccc(F)c5)c4F)c3c2)cn1 [P-2045, N-{2,4-Difluoro-3-[5-(2-methoxy-pyrimidin-5-yl)-1H-pyrrolo[2,3-b]pyridine-3-carbonyl]-phenyl}-3-fluoro-benzenesulfonamide]
not listed: Kit | Kdr | MAP4K4
≤ 10 µM: all other assays above

COc1ncc(-c2cnc3[nH]cc(C(=O)c4c(F)ccc(NS(=O)(=O)c5ccccn5)c4F)c3c2)cn1 [P-2079]
not listed: Kit | MAP4K4
≤ 10 µM: all other assays above

COc1ncc(-c2cnc3[nH]cc(C(=O)c4c(F)ccc(NS(=O)(=O)c5ncn[nH]5)c4F)c3c2)cn1 [P-2080]
not listed: Kit | MAP4K4
≤ 10 µM: all other assays above

NC(=O)c1cccc(-c2cnc3[nH]cc(C(=O)c4cccc(NS(=O)(=O)c5cccnc5)c4)c3c2)c1 [P-2147, 3-{3-[3-(Pyridine-3-sulfonylamino)-benzoyl]-1H-pyrrolo[2,3-b]pyridin-5-yl}-benzamide]
not listed: TEC
≤ 10 µM: all other assays above

CCS(=O)(=O)Nc1ccc(F)c(C(=O)c2c[nH]c3ncc(-c4cnc(OC)nc4)cc23)c1F [P-2286, Ethanesulfonic acid {2,4-difluoro-3-[5-(2-methoxy-pyrimidin-5-yl)-1H-pyrrolo[2,3-b]pyridine-3-carbonyl]-phenyl}-amide]
not listed: Kit | TEC | MAP4K4
≤ 10 µM: all other assays above

COc1ncc(-c2cnc3[nH]cc(C(=O)c4c(F)ccc(NS(=O)(=O)C(C)C)c4F)c3c2)cn1 [P-2287, Propane-2-sulfonic acid {2,4-difluoro-3-[5-(2-methoxy-pyrimidin-5-yl)-1H-pyrrolo[2,3-b]pyridine-3-carbonyl]-phenyl}-amide]
not listed: Kit | MAP4K4
≤ 10 µM: all other assays above

COc1ncc(-c2cnc3[nH]cc(C(=O)c4c(F)ccc(NS(C)(=O)=O)c4F)c3c2)cn1 [P-2295, N-{2,4-Difluoro-3-[5-(2-methoxy-pyrimidin-5-yl)-1H-pyrrolo[2,3-b]pyridine-3-carbonyl]-phenyl}-methanesulfonamide]
≤ 10 µM: Kdr | C-Raf | PI3Kα | B-Raf | B-Raf V600E | Btk

CCC(C)S(=O)(=O)Nc1ccc(F)c(C(=O)c2c[nH]c3ncc(-c4cnc(OC)nc4)cc23)c1F (stereo not drawn) [P-2323, Butane-2-sulfonic acid {2,4-difluoro-3-[5-(2-methoxy-pyrimidin-5-yl)-1H-pyrrolo[2,3-b]pyridine-3-carbonyl]-phenyl}-amide]
not listed: Kit | MAP4K4
≤ 10 µM: all other assays above

COc1ncc(-c2cnc3[nH]cc(C(=O)c4c(F)ccc(NS(=O)(=O)CCC(F)(F)F)c4F)c3c2)cn1 [P-2333]
not listed: Btk | MAP4K4
≤ 10 µM: all other assays above

COc1ncc(-c2cnc3[nH]cc(C(=O)c4c(F)ccc(NS(=O)(=O)C5CCCC5)c4F)c3c2)cn1 [P-2372, Cyclopentanesulfonic acid {2,4-difluoro-3-[5-(2-methoxy-pyrimidin-5-yl)-1H-pyrrolo[2,3-b]pyridine-3-carbonyl]-phenyl}-amide]
not listed: MAP4K4
≤ 10 µM: all other assays above

COc1ncc(-c2cnc3[nH]cc(C(=O)c4c(F)ccc(NS(=O)(=O)C5CCC5)c4F)c3c2)cn1 [P-2373, Cyclobutanesulfonic acid {2,4-difluoro-3-[5-(2-methoxy-pyrimidin-5-yl)-1H-pyrrolo[2,3-b]pyridine-3-carbonyl]-phenyl}-amide]
not listed: Kit | Btk | MAP4K4
≤ 10 µM: all other assays above

COc1ncc(-c2cnc3[nH]cc(C(=O)c4c(F)ccc(NS(=O)(=O)N(C)C)c4F)c3c2)cn1 [P-2399, N,N-dimethylamino-sulfonic acid {2,4-difluoro-3-[5-(2-methoxy-pyrimidin-5-yl)-1H-pyrrolo[2,3-b]pyridine-3-carbonyl]-phenyl}-amide]
not listed: Kit | MAP4K4
≤ 10 µM: all other assays above

CCN(CC)S(=O)(=O)Nc1ccc(F)c(C(=O)c2c[nH]c3ncc(-c4cnc(OC)nc4)cc23)c1F [P-2401, N,N-diethylamino-sulfonic acid {2,4-difluoro-3-[5-(2-methoxy-pyrimidin-5-yl)-1H-pyrrolo[2,3-b]pyridine-3-carbonyl]-phenyl}-amide]
not listed: B-Raf | MAP4K4
≤ 10 µM: all other assays above

COc1ncc(-c2cnc3[nH]cc(C(=O)c4c(F)ccc(NS(=O)(=O)N5CCOCC5)c4F)c3c2)cn1 [P-2402, Morpholine-4-sulfonic acid {2,4-difluoro-3-[5-(2-methoxy-pyrimidin-5-yl)-1H-pyrrolo[2,3-b]pyridine-3-carbonyl]-phenyl}-amide]
not listed: Kit | Kdr | MAP4K4
≤ 10 µM: all other assays above
